For this assay, the system named is MRC-5 human embryonal lung fibroblast cell line. In words: MTT antiproliferative assay, MRC-5. The assay is classed as cell-based. To be noted: 100–0.19 μM, non-tumoral cells; for IC50: read-out: IC50 (µM) ± SD MRC-5. Here is the method:
Breast cancer cell line MCF-7 (ATCC® HTB-22) and the drug-resistant subline of the human breast cancer MCF-7 (ECACC 86012803; KCR) were purchased from LGC Promochem (Teddington, UK). Both cell lines were cultured in Eagle’s Minimal Essential Medium (EMEM, containing 4.5 g/L glucose) supplemented with a non-essential amino acid mixture, a selection of vitamins, and 10% heat-inactivated fetal bovine serum. In every third passage, 0.56 µg/mL doxorubicin was added to the medium, in order to maintain the ABCB1 (P-glycoprotein) expression in KCR cells. A2780 human ovarian cancer cell line (ECACC, European Collection of Authentical Cell Culture, Sigma Cat.no. 93112519) was purchased from Merck KGaA (Darmstadt, Germany). […] The human ovarian cancer cell lines were cultured in RPMI 1640 medium supplemented with 10% heat-inactivated fetal bovine serum. […] HeLa (ATCC® CCL-2™) human cervix carcinoma cell line was purchased from LGC Promochem (Teddington, UK). The cells were cultured in Eagle’s Minimal Essential Medium (EMEM, containing 4.5 g/L glucose) supplemented with a non-essential amino acid mixture, a selection of vitamins, and 10% heat-inactivated fetal bovine serum. MRC-5 human embryonal lung fibroblast cell line (ATCC® CCL-171) was purchased from LGC Promochem, Teddington, UK. The cell line was cultured in Eagle’s Minimal Essential Medium (EMEM, containing 4.5 g/L glucose) supplemented with a non-essential amino acid mixture, a selection of vitamins, and 10% heat-inactivated fetal bovine serum. HTB-26 breast adenocarcinoma cell line was purchased from LGC Promochem, Teddington, UK. The cell line was cultured in RPMI 1640 medium supplemented with 10% heat-inactivated fetal bovine serum. T-47D (ATCC® HTB-133™) ductal carcinoma cell line was purchased from LGC Promochem, Teddington, UK. The cells were cultured in RPMI 1640 medium supplemented with 10% heat-inactivated fetal bovine serum, 2 mM L-glutamine, 1 mM Na-pyruvate, and 100 mM Hepes. All of the cells were incubated at 37 °C, in a 5% CO2 and 95% air atmosphere.
The antiproliferative effect of the compounds was determined on human breast (MCF-7, KCR, T47D, and HTB-26), cervical (HeLa), and ovarian (A2780 and A2780cis) cancer cells, and on MRC-5 (human embryonic lung fibroblast) cell lines. The adherent cells were cultured in 96-well flat-bottomed microtiter plates, using EMEM supplemented with 10% heat-inactivated fetal bovine serum or RPMI 1640 supplemented with 10% heat-inactivated fetal bovine serum, respectively. The density of the cells was adjusted to 6 × 10^3 cells in 100 μL per well, the cells were seeded for 24 h at 37 °C, with 5% CO2, and then the medium was removed from the plates, and fresh medium (100 μL per well) was added to the cells. The effects of increasing concentrations of compounds on cell proliferation were tested in 96-well flat-bottomed microtiter plates. The compounds were diluted in the appropriate medium; the dilutions of compounds were performed in separate plates and then added to the cells. The starting concentration of the compounds was 100 μM, and two-fold serial dilution was performed (concentration range: 100–0.19 μM). The culture plates were incubated at 37 °C for 72 h; at the end of the incubation period, 20 μL of MTT (thiazolyl blue tetrazolium bromide, Sigma) solution (from a stock solution of 5 mg/mL) was added to each well. After incubation at 37 °C for 4 h, 100 μL of sodium dodecyl sulfate (SDS) (Sigma) solution (10% in 0.01 M HCI) was added to each well, and the plates were further incubated, at 37 °C, overnight. Cell growth was determined by measuring the optical density (OD) at 540/630 nm, with a Multiscan EX ELISA reader (Thermo Labsystems, Cheshire, WA, USA). Mean IC50 values were obtained by best-fitting the dose-dependent inhibition curves in GraphPadPrism5 program (GraphPad Software version 5.00 for Windows, San Diego, CA, USA) from four parallel experiments for each cell line.
(In general: Formazan colour is commonly taken as a measure of viable cells.)

Where two headings read alike, the source gives them in different places.

The term IC50 denotes the concentration that gives 50% inhibition. For `N.N.[Cl][Pt][Cl]` [Cisplatin, cisplatin, reference compound], the IC50 (72 h) amounted to 0.6 µM.
Regarding `C=CC1=C(C)C(=O)C=C2CCC3=C(C=CC(=O)C3(C)OC)C21OC` (centres unmarked) [Compound 1b], the “IC50 (µM) ± SD MRC-5” value (72 h) is “did not show an antiproliferative effect”. The IC50 (Homo sapiens, MRC5, 72 h) is above 100 µM.
`C=CC1=C(C)C(=O)C=C2CCC3=C(C=CC(=O)C3(C)OCC)C21OCC` (centres unmarked) [Compound 2a]: the “IC50 (µM) ± SD MRC-5” value (72 h) is “did not show an antiproliferative effect”. Also, the IC50 (Homo sapiens, MRC5, 72 h) is above 100 µM.
On to `C=CC1=C(C)C(=O)C=C2CCC3=C(C=CC(=O)C3(C)OCC)C21OCC` (centres unmarked) [Compound 2b], for which the IC50 (72 h) is 57.7 ± 0.3 µM.
`C=CC1=CC(=O)C=C2CCC3=C(C=CC(=O)C3(C)OC)C12OC` (centres unmarked) [Compound 3]: the IC50 (Homo sapiens, MRC5, 72 h) was 12.2 ± 0.2 µM.
On the same count and under the same terms, to `C=CC1=CC(=O)C=C2CCC3=C(C=CC(=O)C3(C)OCC)C12OCC` (centres unmarked) [Compound 4a] belongs 14.3 ± 0.5 µM.
Consider `C=CC1=CC(=O)C=C2CCC3=C(C=CC(=O)C3(C)OCC)C12OCC` (centres unmarked) [Compound 4b], for which the IC50 (72 h) stood at 23.4 ± 1.3 µM.
With `C=Cc1cc(O)cc2c1-c1ccc(O)c(C)c1CC2` [effusol], where the note is “Homo sapiens, MRC5, 72 h”, the IC50 amounted to 60.1 ± 5.1 µM.
The same measure, in the same setting: to `C=Cc1c(C)c(O)cc2c1-c1ccc(O)c(C)c1CC2` [juncusol] belongs 40.9 ± 2 µM.
